Measurements from patent US8569344B2, “N-piperidinyl acetamide derivatives as calcium channel blockers” (Zalicus Pharmaceuticals Ltd., priority 2008, dated 2013).

Assays:
[1] = molecular target: T1, human α1G T-type channels (Homo sapiens, UniProt O43497); assay: T-type calcium channel block, whole cell patch clamp in HEK cells (α1G); type: cell-based; settings: HEK cells, patch clamp, mainly non-inactivated protocol; values above 10 μM shown as 10 μM, below 0.30 μM shown as 0.30 μM; read-out: T-type Calcium Channel Block α1G IC50
T1 construct: expressed in transfected cells; host or cells: HEK 293
T1 sequence (O43497 whole entry): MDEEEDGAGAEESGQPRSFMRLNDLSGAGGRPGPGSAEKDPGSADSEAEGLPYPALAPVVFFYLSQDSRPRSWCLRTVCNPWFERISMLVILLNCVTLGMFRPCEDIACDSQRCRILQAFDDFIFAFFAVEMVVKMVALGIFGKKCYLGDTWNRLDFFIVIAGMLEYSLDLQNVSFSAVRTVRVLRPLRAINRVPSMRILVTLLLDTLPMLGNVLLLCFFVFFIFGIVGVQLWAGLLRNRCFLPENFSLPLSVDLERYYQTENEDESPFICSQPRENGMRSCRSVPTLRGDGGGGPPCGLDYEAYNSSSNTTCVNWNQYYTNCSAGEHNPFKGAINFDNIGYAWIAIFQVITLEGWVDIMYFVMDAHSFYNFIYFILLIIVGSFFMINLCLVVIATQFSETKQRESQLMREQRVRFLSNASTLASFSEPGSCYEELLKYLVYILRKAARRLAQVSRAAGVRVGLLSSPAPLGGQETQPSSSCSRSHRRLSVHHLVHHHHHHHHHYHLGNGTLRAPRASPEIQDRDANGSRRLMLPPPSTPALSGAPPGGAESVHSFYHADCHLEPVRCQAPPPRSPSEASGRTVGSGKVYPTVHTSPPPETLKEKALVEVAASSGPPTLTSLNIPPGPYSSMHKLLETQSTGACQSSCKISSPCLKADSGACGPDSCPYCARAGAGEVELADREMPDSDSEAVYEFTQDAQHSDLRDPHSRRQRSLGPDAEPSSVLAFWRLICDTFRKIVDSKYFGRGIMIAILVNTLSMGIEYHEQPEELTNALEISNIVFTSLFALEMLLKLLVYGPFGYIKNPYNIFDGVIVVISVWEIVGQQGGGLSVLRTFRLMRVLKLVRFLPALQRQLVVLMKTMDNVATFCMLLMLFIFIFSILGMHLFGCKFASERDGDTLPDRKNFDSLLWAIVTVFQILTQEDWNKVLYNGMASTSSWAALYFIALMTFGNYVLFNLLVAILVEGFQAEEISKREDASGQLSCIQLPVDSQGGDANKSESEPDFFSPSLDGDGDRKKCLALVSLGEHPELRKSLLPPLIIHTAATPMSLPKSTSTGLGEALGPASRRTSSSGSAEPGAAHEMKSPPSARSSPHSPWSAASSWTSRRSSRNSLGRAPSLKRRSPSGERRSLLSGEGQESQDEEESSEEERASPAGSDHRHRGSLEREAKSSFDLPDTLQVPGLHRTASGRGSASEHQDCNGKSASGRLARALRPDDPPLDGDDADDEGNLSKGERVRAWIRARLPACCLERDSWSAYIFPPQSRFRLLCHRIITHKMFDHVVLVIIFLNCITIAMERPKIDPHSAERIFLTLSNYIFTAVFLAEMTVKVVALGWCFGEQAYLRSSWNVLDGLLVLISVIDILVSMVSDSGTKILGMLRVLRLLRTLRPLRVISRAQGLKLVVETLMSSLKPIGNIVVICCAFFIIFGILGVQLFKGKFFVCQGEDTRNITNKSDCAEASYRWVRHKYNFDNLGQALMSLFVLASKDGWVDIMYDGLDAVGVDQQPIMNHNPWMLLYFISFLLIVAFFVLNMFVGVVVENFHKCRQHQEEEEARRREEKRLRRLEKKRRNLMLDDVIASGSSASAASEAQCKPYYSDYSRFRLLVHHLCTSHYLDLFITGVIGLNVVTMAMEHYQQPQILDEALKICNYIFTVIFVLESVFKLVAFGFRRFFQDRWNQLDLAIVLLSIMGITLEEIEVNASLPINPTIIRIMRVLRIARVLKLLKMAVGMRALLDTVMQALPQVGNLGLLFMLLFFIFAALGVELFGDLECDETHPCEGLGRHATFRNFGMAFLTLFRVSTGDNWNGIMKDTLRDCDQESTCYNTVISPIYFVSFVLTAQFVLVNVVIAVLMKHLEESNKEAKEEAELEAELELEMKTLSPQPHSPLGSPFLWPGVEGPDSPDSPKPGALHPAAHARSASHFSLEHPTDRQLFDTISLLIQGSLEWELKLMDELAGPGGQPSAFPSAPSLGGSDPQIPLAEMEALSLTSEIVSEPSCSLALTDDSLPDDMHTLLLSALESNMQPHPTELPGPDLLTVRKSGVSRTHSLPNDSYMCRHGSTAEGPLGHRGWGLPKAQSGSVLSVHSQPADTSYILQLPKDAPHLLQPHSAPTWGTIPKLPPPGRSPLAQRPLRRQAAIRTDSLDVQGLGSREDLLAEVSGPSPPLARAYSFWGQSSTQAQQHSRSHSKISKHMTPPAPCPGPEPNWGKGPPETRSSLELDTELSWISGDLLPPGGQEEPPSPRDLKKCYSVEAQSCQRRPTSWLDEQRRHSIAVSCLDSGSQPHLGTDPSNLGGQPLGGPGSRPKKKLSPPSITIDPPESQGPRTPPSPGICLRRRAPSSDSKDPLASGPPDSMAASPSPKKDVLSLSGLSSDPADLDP

[2] = molecular target: T2, human α1H T-type channels (Homo sapiens, UniProt O95180); assay: T-type calcium channel block, whole cell patch clamp in HEK cells (α1H); type: cell-based; settings: HEK cells, patch clamp, mainly non-inactivated protocol; values above 10 μM shown as 10 μM; read-out: T-type Calcium Channel Block α1H IC50
T2 construct: expressed in transfected cells; host or cells: HEK 293
T2 sequence (O95180 whole entry): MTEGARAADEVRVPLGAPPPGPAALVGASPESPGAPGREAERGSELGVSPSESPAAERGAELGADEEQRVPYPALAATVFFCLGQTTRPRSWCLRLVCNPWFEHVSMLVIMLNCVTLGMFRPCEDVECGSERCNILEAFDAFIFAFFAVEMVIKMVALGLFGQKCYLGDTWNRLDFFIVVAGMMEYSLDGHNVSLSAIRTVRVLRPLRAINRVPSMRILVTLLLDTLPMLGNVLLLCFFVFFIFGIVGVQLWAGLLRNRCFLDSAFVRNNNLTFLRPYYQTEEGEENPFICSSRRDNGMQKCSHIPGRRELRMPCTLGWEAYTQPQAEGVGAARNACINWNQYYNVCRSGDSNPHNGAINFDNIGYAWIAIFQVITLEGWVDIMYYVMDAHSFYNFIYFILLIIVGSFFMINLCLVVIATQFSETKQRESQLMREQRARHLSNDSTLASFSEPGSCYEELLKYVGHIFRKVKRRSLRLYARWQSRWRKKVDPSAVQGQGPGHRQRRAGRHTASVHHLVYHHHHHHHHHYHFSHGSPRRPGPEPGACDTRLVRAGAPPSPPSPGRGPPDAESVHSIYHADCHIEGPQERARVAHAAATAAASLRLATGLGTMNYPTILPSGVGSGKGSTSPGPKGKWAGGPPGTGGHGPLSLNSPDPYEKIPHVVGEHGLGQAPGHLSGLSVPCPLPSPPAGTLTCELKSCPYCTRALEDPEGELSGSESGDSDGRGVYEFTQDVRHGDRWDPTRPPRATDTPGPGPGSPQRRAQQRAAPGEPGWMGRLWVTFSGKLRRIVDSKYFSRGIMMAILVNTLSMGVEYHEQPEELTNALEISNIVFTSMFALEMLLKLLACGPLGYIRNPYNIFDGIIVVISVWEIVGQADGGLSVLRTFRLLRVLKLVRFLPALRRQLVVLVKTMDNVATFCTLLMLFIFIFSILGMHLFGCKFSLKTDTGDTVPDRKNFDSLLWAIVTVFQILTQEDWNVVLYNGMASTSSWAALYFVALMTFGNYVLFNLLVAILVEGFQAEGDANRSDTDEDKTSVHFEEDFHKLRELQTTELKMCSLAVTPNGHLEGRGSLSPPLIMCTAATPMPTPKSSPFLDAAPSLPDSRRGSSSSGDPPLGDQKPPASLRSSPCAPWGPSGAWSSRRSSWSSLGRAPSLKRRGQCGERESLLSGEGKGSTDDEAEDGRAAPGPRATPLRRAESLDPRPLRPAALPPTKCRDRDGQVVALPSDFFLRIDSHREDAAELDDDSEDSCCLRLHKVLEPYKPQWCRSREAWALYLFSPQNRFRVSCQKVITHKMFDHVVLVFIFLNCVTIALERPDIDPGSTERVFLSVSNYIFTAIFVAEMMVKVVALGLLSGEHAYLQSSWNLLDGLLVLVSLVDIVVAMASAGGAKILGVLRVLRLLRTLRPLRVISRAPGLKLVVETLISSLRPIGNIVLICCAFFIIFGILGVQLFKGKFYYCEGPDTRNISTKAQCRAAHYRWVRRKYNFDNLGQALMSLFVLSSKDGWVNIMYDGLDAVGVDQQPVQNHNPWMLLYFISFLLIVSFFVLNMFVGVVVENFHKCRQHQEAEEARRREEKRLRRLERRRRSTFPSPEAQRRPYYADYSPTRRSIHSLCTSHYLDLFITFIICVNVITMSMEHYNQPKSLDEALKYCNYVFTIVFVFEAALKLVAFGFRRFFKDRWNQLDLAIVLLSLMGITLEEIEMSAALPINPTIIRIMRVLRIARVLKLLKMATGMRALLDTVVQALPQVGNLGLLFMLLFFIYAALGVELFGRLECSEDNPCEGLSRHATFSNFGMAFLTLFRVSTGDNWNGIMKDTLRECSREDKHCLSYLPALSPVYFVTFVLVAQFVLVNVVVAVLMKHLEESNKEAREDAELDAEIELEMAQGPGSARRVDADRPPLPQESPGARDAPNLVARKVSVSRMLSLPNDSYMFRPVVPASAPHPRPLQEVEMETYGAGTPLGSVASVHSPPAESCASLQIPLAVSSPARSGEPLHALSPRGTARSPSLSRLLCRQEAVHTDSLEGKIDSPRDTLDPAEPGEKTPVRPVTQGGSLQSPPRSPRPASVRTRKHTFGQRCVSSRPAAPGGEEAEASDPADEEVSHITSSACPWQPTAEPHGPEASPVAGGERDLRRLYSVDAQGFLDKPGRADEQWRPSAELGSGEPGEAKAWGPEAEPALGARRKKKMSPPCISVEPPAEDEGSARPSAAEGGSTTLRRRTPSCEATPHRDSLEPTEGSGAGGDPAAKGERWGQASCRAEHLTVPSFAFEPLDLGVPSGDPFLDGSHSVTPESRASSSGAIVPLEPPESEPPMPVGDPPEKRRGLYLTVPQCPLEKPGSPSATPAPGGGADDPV

Structure (SMILES) | IC50 [1] | IC50 [2]
CC(C)NC(=O)CN1CCC(CNC(=O)c2cc(F)cc(Cl)c2)CC1 [Compound 443, 3-chloro-5-fluoro-N-((1-(2-(isopropyl-amino)-2-oxoethyl)piperidin-4-yl)methyl)benzamide] | 3310 nM | 2810 nM
Cc1cc(F)cc(C(=O)NCC2CCN(CCNC(=O)C3(C(F)(F)F)CC3)CC2)c1 [Compound 498, 3-fluoro-5-methyl-N-((1-(2-(1-(trifluoromethyl)cyclopropanecarbox-amido)ethyl)piperidin-4-yl)methyl) benzamide] | 770 nM | 220 nM
CC(C)(F)C(=O)NCCN1CCC(CNC(=O)c2cc(C(F)(F)F)cc(C(F)(F)F)c2)CC1 [Compound 335, N-((1-(2-(2-fluoro-2-methylpropanamido)ethyl)piperidin-4-yl)methyl)-3,5-bis(trifluoromethyl) benzamide] | 330 nM | 310 nM
CCS(=O)(=O)NC1(CN2CCC(CNC(=O)c3cc(C(F)(F)F)cc(C(F)(F)F)c3)CC2)CC1 [Compound 358, N-((1-((1-(ethylsulfonamido)cyclopropyl)methyl)piperidin-4-yl)methyl)-3,5-bis(trifluoromethyl)benzamide] | 520 nM | 530 nM
CC(C)(C)C(=O)NC1(CN2CCC(CNC(=O)c3cc(C(F)(F)F)cc(C(F)(F)F)c3)CC2)CC1 [Compound 361, N-((1-((1-pivalamidocyclopropyl)methyl)piperidin-4-yl)methyl)-3,5-bis(trifluoromethyl)benzamide] | 700 nM | 600 nM
Cc1cc(C)cc(C(=O)NCC2CCN(CCNC(=O)C(C)(C)C(F)(F)F)CC2)c1 [Compound 488, 3,5-dimethyl-N-((1-(2-(3,3,3-trifluoro-2,2-dimethylpropanamido)ethyl)piperidin-4-yl)methyl)benzamide] | 420 nM | 130 nM
CS(=O)(=O)NC1(CN2CCC(CNC(=O)c3cc(C(F)(F)F)cc(C(F)(F)F)c3)CC2)CC1 [Compound 357, N-((1-((1-(methylsulfonamido)cyclopropyl)methyl)piperidin-4-yl)methyl)-3,5-bis(trifluoromethyl)benzamide] | 2150 nM | 1270 nM
CCONC(=O)CN1CCC(CNC(=O)c2cc(C(F)(F)F)cc(C(F)(F)F)c2)CC1 [Compound 486, N-((1-(2-(ethoxyamino)-2-oxoethyl)piperidin-4-yl)methyl)-3,5-bis(trifluoromethyl)benzamide] | > 10000 nM | > 10000 nM
CC(C)(C)OC(=O)NCCN1CCC(CNC(=O)c2cc(F)cc(F)c2)CC1 [Compound 47, tert-butyl 2-(4-((3,5-difluorobenzamido)methyl)piperidin-1-yl)ethylcarbamate] | 3110 nM | 880 nM
CCCNC(=O)CN1CCC(CNC(=O)c2cc(C)cc(C)c2)CC1 [Compound 445, 3,5-dimethyl-N-((1-(2-oxo-2-(propylamino)ethyl)piperidin-4-yl)methyl)benzamide] | > 10000 nM | > 10000 nM
CC1CCCN(CC(=O)N2CCC(CNC(=O)c3cc(F)cc(C(F)(F)F)c3)CC2)C1 (stereo not shown) [Compound 268, 3-fluoro-N-((1-(2-(3-methylpiperidin-1-yl)acetyl)piperidin-4-yl)methyl)-5-(trifluoromethyl)benzamide] | > 10000 nM | > 10000 nM
CC(C)(C)C1CCN(CC(=O)N2CCC(CNC(=O)c3cc(F)cc(C(F)(F)F)c3)CC2)CC1 [Compound 285, N-((1-(2-(4-tert-butylpiperidin-1-yl)acetyl)piperidin-4-yl)methyl)-3-fluoro-5-(trifluoromethyl)benzamide] | 4940 nM | > 10000 nM
CC(C)(C)C(=O)NCCN1CCC(CNC(=O)/C=C/c2cc(Cl)cc(Cl)c2)CC1 [Compound 300, (E)-3-(3,5-dichlorophenyl)-N-((1-(2-pivalamidoethyl)piperidin-4-yl)methyl)acrylamide] | 2810 nM | 3250 nM
CCOC(=O)NCCN1CCC(CNC(=O)c2cc(C(F)(F)F)cc(C(F)(F)F)c2)CC1 [Compound 36, ethyl 2-(4-((3,5-bis(trifluoromethyl)benzamido)methyl)piperidin-1-yl)ethylcarbamate] | 4300 nM | 1700 nM
O=C(NCC1CCN(CC(=O)N2CCC(F)CC2)CC1)c1cc(F)cc(C(F)(F)F)c1 [Compound 356, 3-fluoro-N-((1-(2-(4-fluoropiperidin-1-yl)-2-oxoethyl)piperidin-4-yl)methyl)-5-(trifluoromethyl)benzamide] | 550 nM | 830 nM
COc1cc(F)cc(C(=O)NCC2CCN(CC(=O)NC(C)C)CC2)c1 [Compound 438, 3-fluoro-N-((1-(2-(isopropylamino)-2-oxoethyl)piperidin-4-yl)methyl)-5-methoxybenzamide] | 3910 nM | 1710 nM
CC(C)(C)C(=O)NCCN1CCC(CNC(=O)c2cc(F)cc(Cl)c2)CC1 [Compound 309, 3-chloro-5-fluoro-N-((1-(2-pivalamidoethyl)piperidin-4-yl)methyl)benzamide] | 850 nM | 350 nM
CC(C)(C)C(=O)NCCN1CCC(CNC(=O)c2cccc(OC(F)(F)F)c2)CC1 [Compound 292, N-((1-(2-pivalamidoethyl)piperidin-4-yl)methyl)-3-(trifluoromethoxy)benzamide] | 360 nM | 740 nM
CC(C)(F)C(=O)NCCN1CCC(CNC(=O)c2cc(F)cc(C(F)(F)F)c2)CC1 [Compound 336, 3-fluoro-N-((1-(2-(2-fluoro-2-methylpropanamido)ethyl)piperidin-4-yl)methyl)-5-(trifluoromethyl)benzamide] | 1750 nM | 1160 nM
Cc1cc(C)cc(C(=O)NCC2CCN(CCNC(=O)CCC(F)(F)F)CC2)c1 [Compound 312, 3,5-dimethyl-N-((1-(2-(4,4,4-trifluorobutanamido)ethyl)piperidin-4-yl)methyl)benzamide] | 4260 nM | 750 nM
CC(C)(C)C(=O)NCCN1CCC(CNC(=O)c2cc(F)cc(C(F)(F)F)c2)CC1 [Compound 294, 3-fluoro-N-((1-(2-pivalamidoethyl)piperidin-4-yl)methyl)-5-(trifluoromethyl)benzamide] | 570 nM | 810 nM

The next molecules have a lower IC50 [1] than those just listed; values first:

IC50 [1] | IC50 [2] | Structure (SMILES)
< 300 nM | 190 nM | O=C(NCC1CCN(CCNC(=O)C2(C(F)(F)F)CCC2)CC1)c1cccc(Cl)c1 [Compound 512, 3-chloro-N-((1-(2-(1-(trifluoromethyl)cyclobutanecarboxamido)ethyl)piperidin-4-yl)methyl)benzamide]
< 300 nM | 30 nM | CC(C(=O)NC(C)(C)C(F)(F)F)N1CCC(CNC(=O)c2cc(F)cc(Cl)c2)CC1 (stereo not shown) [Compound 547, 3-chloro-5-fluoro-N-((1-(1-oxo-1-(1,1,1-trifluoro-2-methylpropan-2-ylamino)propan-2-yl)piperidin-4-yl)methyl)benzamide]
310 nM | 1090 nM | O=C(NCC1CCN(C(=O)CNC2CCCCC2)CC1)c1cc(F)cc(C(F)(F)F)c1 [Compound 276, N-((1-(2-(cyclohexylamino)acetyl)piperidin-4-yl)methyl)-3-fluoro-5-(trifluoromethyl)benzamide]
< 300 nM | 370 nM | CC(C)(C#N)NC(=O)CN1CCC(CNC(=O)c2cc(C(F)(F)F)cc(C(F)(F)F)c2)CC1 [Compound 304, N-((1-(2-(2-cyanopropan-2-ylamino)-2-oxoethyl)piperidin-4-yl)methyl)-3,5-bis(trifluoromethyl)benzamide]
< 300 nM | 50 nM | CCC(C)(C)NC(=O)CN1CCC(CNC(=O)c2cc(C(F)(F)F)cc(C(F)(F)F)c2)CC1 [Compound 346, N-((1-(2-oxo-2-(tert-pentylamino)ethyl)piperidin-4-yl)methyl)-3,5-bis(trifluoromethyl) benzamide]
< 300 nM | 90 nM | CC(C)(C)NC(=O)CN1CCC(CNC(=O)c2cc(Br)cc(C(F)(F)F)c2)CC1 [Compound 382, 3-bromo-N-((1-(2-(tert-butylamino)-2-oxoethyl)piperidin-4-yl)methyl)-5-(trifluoromethyl)benzamide]
< 300 nM | 1170 nM | O=C(NC1CCCCC1)NC1(CN2CCC(CNC(=O)c3cc(C(F)(F)F)cc(C(F)(F)F)c3)CC2)CCCC1 [Compound 14, N-((1-((1-(3-cyclohexylureido)cyclopentyl)methyl)piperidin-4-yl)methyl)-3,5-bis(trifluoromethyl)benzamide]
< 300 nM | 80 nM | CC1(NC(=O)CN2CCC(CNC(=O)c3cc(F)cc(C(F)(F)F)c3)CC2)CCC1 [Compound 352, 3-fluoro-N-((1-(2-(1-methylcyclo-butylamino)-2-oxoethyl)piperidin-4-yl)methyl)-5-(trifluoromethyl) benzamide]
< 300 nM | 110 nM | CCCNC(=O)CN1CCC(CNC(=O)c2cc(C(F)(F)F)cc(C(F)(F)F)c2)CC1 [Compound 345, N-((1-(2-oxo-2-(propylamino)ethyl)piperidin-4-yl)methyl)-3,5-bis(trifluoromethyl)benzamide]
< 300 nM | 210 nM | Cc1cc(C)cc(C(=O)NCC2CCN(CC(=O)N3CCC[C@H]3C(F)(F)F)CC2)c1 [Compound 463, (S)-3,5-dimethyl-N-((1-(2-oxo-2-(2-(trifluoromethyl)pyrrolidin-1-yl)ethyl)piperidin-4-yl)methyl) benzamide]
< 300 nM | 170 nM | COc1cc(F)cc(C(=O)NCC2CCN(CC(=O)N3CCC[C@H]3C(F)(F)F)CC2)c1 [Compound 465, (S)-3-fluoro-5-methoxy-N-((1-(2-oxo-2-(2-(trifluoromethyl)pyrrolidin-1-yl)ethyl)piperidin-4-yl)methyl)benzamide]
